# Laboratory results reported in patent US12122761B2, “2-azaspiro[3.4]octane derivatives as M4 agonists” (NOVARTIS AG, priority 2019, dated 2024).
# Key:
# [1] = target: T1, human cloned CHRM2 receptor (M2_CHO cells) (Homo sapiens, UniProt P08172); assay: CHRM2 Ca++ Flux Assay (agonist mode, FDSS 7000EX); assay type: cell-based; conditions: for M2 FDSS PA: Percent Activity measured to EC100 of Carbachol; for EC50: agonist mode, geometric mean if tested more than once, read-out: M2 FDSS EC50
# T1 construct: expressed in transfected cells; host or cells: CHO-K1
# T1 sequence (P08172 1-466): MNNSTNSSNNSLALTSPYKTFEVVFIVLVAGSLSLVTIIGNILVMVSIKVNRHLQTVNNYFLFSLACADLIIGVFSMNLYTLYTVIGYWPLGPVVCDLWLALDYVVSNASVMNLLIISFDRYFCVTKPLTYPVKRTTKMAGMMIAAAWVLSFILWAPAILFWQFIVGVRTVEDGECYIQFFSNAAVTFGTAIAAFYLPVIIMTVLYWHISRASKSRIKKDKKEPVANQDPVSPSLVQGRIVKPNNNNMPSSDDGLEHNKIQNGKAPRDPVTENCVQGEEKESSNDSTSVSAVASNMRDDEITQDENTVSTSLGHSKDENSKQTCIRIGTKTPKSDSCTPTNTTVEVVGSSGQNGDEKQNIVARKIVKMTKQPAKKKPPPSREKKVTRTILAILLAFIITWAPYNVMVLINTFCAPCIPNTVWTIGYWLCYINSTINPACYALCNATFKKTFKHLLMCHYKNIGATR
# Experimental: (§1) The above examples were characterized by measuring the intracellular mobilization of Ca++ ions caused by signaling events mediated by the receptor. The Intra-cellular Calcium flux levels were captured by the highly sensitive Ca++ indicator, Calcium Assay Kit (BD Biosciences, Catalog Number 640178). The fluorescent activity from all receptors were monitored by the fluorescent imager, FDSS 7000EX (Hamamatsu) over a span of 3 minutes.
# (§2) CHO-K1 cells stably expressing the human cloned CHRM2 receptor (M2_CHO cells) were grown and maintained in a monolayer culture with F12/HAM (Life Technologies) supplemented with 10% Fetal Bovine Serum, 1× Pen-Strep, and 0.4 mg/mL Geneticin in a humidified atmosphere (5% CO2) at 37° C. The cultures were grown to 80-9 0% confluency in T150 flasks (Corning) and washed with 1×DPBS and lifted with 0.05% Trypsin (Life Technologies). The cells were then spun (1K rpm, 3 minutes) and frozen using Recovery Cell Culture Freezing Media (Gibco Technologies). Cells were stored in liquid nitrogen and thawed a day before the assay.
# Prior to the day of the assay, stable M2 CHO cells were thawed and plated on Greiner 384 well TC treated plate at a density of 12K cells/well and kept overnight in a humidified atmosphere (5% CO2) at 37° C. The following day, the cells were loaded with Ca^++ dye (BD Biosciences) using Loading Buffer (HBSS +Ca/+Mg, 20 mM HEPES, 2.5 mM Probenecid) and placed back in cell incubator for a minimum of 1 hour and maximum of 2 hours. After incubation, the dye was replaced with Assay Buffer (HBSS −Ca/−Mg, 20 mM HEPES, 2.5 mM Probenecid) supplemented with 20 μM ATP (Sigma Aldrich) and kept at room temperature for 60 minutes prior before running on cell imager. The FDSS 7000EX (Hamamatsu) was used to acquire Ca^++ traces from cells in response to compound treatment and the data was used to generate dose response curves in agonist mode. All compounds were serially diluted in DMSO then prepared in Assay Buffer for Ca^++ flux studies. The dose response curves were generated from the average of triplicate wells obtained from each data point and used a non-linear regression of four parameter dose response algorithm. The Percent Activity (PA) was measured to EC100 of Carbachol.
# [2] = target: T2, human cloned CHRM5 receptor (M5_CHO) (Homo sapiens, UniProt P08912); assay: CHRM5 Ca++ Flux Assay (agonist mode, FDSS 7000EX); assay type: cell-based; conditions: for M5 FDSS PA: Percent Activity measured to EC100 of Carbachol; for EC50: agonist mode, geometric mean if tested more than once, read-out: M5 FDSS EC50
# T2 construct: expressed in transfected cells; host or cells: CHO (M5_CHO)
# T2 sequence (P08912 1-532): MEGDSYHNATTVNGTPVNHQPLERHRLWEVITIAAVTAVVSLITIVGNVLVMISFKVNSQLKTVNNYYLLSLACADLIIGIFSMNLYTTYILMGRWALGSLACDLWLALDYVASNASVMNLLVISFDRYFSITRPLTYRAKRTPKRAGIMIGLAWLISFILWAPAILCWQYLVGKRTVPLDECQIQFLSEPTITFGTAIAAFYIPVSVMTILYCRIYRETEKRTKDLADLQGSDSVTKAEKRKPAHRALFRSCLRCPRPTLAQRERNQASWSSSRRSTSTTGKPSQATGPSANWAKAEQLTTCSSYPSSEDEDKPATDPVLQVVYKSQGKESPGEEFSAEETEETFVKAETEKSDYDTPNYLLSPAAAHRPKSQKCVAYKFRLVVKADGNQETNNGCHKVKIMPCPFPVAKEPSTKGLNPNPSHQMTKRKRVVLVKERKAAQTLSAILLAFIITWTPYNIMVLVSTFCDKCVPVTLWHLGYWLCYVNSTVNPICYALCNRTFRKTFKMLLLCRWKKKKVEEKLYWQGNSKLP
# Experimental: as §1
# as §2, with “CHRM3” for “CHRM2”, “(M3_CHO” for “(M2_CHO”, “assay. A similar procedure was used for cells stably expressing the human cloned CHRM5 receptor (M5_CHO).” for “assay.”
# Prior to the day of the assay, stable M3_CHO or M5_CHO cells were thawed and plated on Greiner 384 well black TC treated plates at 12K cells/well in F12/DMEM supplemented with 10% FBS (Hyclone) and kept overnight in a humidified atmosphere (5% CO2) at 37° C. The next day, cells were loaded with Ca^++ dye (BD Biosciences) using Loading Buffer (HBSS +Ca/+Mg, 20 mM HEPES, 2.5 mM Probenecid) and placed back in cell incubator for a minimum of 1 hour. After incubation, the dye was replaced with Assay Buffer (HBSS −Ca/−Mg, 20 mM HEPES, 2.5 mM Probenecid) and kept at room temperature in the dark before running on cell imager. The FDSS 7000EX (Hamamatsu) was used to acquire Ca^++ traces from cells treated with 11 point dose response of compounds in triplicate in order to generate dose response curves in agonist mode. All compounds were serially diluted in DMSO then prepared in Assay Buffer for Ca^++ flux studies. The dose response curves were generated from the average of triplicate wells obtained from each data point and used a non-linear regression of four parameter dose response algorithm. The Percent Activity (PA) was measured to EC100 of Carbachol.
SMILES,M2 FDSS PA [1] [%],M5 FDSS PA [2] [%],EC50 [2] [µM],EC50 [1] [µM]
"O=C(N1CC2(CC[C@@H](N3CCC(c4ccccc4OCC4CCOCC4)CC3)C2)C1)C1(F)CC1 (single isomer, unassigned) [Example 7Q, (R)-(1-fluorocyclopropyl)(6-(4-(2-((tetrahydro-2H-pyran-4-yl)methoxy)phenyl)piperidin-1-yl)-2-azaspiro[3.4]octan-2-yl)methanone or (S)-(1-fluorocyclopropyl)(6-(4-(2-((tetrahydro-2H-pyran-4-yl)methoxy)phenyl)piperidin-1-yl)-2-azaspiro[3.4]octan-2-yl)methanone]",0,0,> 25,
"Cc1nnc(COc2ccccc2C2CCN([C@@H]3CCC4(C3)CN(C(=O)C3(F)CC3)C4)CC2)s1 (single isomer, unassigned) [Example 7R, (R)-(1-fluorocyclopropyl)(6-(4-(2-((5-methyl-1,3,4-thiadiazol-2-yl)methoxy)phenyl)piperidin-1-yl)-2-azaspiro[3.4]octan-2-yl)methanone or (S)-(1-fluorocyclopropyl)(6-(4-(2-((5-methyl-1,3,4-thiadiazol-2-yl)methoxy)phenyl)piperidin-1-yl)-2-azaspiro[3.4]octan-2-yl)methanone]",15,0,> 25,6.59
"CCOc1ccccc1C1CCN([C@@H]2CCC3(C2)CN(C(=O)C2(F)CC2)C3)CC1 (single isomer, unassigned) [Example 7S, (R)-(6-(4-(2-ethoxyphenyl)piperidin-1-yl)-2-azaspiro[3.4]octan-2-yl)(1-fluorocyclopropyl)methanone or (S)-(6-(4-(2-ethoxyphenyl)piperidin-1-yl)-2-azaspiro[3.4]octan-2-yl)(1-fluorocyclopropyl)methanone]",0,0,> 25,
"O=C(N1CC2(CC[C@@H](N3CCC(c4ccccc4OCC4CC4)CC3)C2)C1)C1(F)CC1 (single isomer, unassigned) [Example 7T, (R)-(6-(4-(2-(cyclopropylmethoxy)phenyl)piperidin-1-yl)-2-azaspiro[3.4]octan-2-yl)(1-fluorocyclopropyl)methanone or (R)-(6-(4-(2-(cyclopropylmethoxy)phenyl)piperidin-1-yl)-2-azaspiro[3.4]octan-2-yl)(1-fluorocyclopropyl)methanone]",19,0,> 25,18.6
"Cc1noc(C)c1COc1ccccc1C1CCN([C@@H]2CCC3(C2)CN(C(=O)C2(F)CC2)C3)CC1 (single isomer, unassigned) [Example 7U, (R)-(6-(4-(2-((3,5-dimethylisoxazol-4-yl)methoxy)phenyl)piperidin-1-yl)-2-azaspiro[3.4]octan-2-yl)(1-fluorocyclopropyl)methanone or (S)-(6-(4-(2-((3,5-dimethylisoxazol-4-yl)methoxy)phenyl)piperidin-1-yl)-2-azaspiro[3.4]octan-2-yl)(1-fluorocyclopropyl)methanone]",0,0,> 25,
"Cc1ncc(COc2ccccc2C2CCN([C@@H]3CCC4(C3)CN(C(=O)C3(F)CC3)C4)CC2)o1 (single isomer, unassigned) [Example 7V, (R)-(1-fluorocyclopropyl)(6-(4-(2-((2-methyloxazol-5-yl)methoxy)phenyl)piperidin-1-yl)-2-azaspiro[3.4]octan-2-yl)methanone or (S)-(1-fluorocyclopropyl)(6-(4-(2-((2-methyloxazol-5-yl)methoxy)phenyl)piperidin-1-yl)-2-azaspiro[3.4]octan-2-yl)methanone]",0,0,> 25,
"Cc1nnc(COc2ccccc2C2CCN([C@@H]3CCC4(C3)CN(C(=O)C3(F)CC3)C4)CC2)o1 (single isomer, unassigned) [Example 7W, (R)-(1-fluorocyclopropyl)(6-(4-(2-((5-methyl-1,3,4-oxadiazol-2-yl)methoxy)phenyl)piperidin-1-yl)-2-azaspiro[3.4]octan-2-yl)methanone or (S)-(1-fluorocyclopropyl)(6-(4-(2-((5-methyl-1,3,4-oxadiazol-2-yl)methoxy)phenyl)piperidin-1-yl)-2-azaspiro[3.4]octan-2-yl)methanone]",0,8,0.077,
"Cc1nc(COc2ccccc2C2CCN([C@@H]3CCC4(C3)CN(C(=O)C3(F)CC3)C4)CC2)no1 (single isomer, unassigned) [Example 7X, (R)-(1-fluorocyclopropyl)(6-(4-(2-((5-methyl-1,2,4-oxadiazol-3-yl)methoxy)phenyl)piperidin-1-yl)-2-azaspiro[3.4]octan-2-yl)methanone or (S)-(1-fluorocyclopropyl)(6-(4-(2-((5-methyl-1,2,4-oxadiazol-3-yl)methoxy)phenyl)piperidin-1-yl)-2-azaspiro[3.4]octan-2-yl)methanone]",0,9,0.071,
"Cc1nnc(COc2ccccc2C2CCN([C@@H]3CCC4(C3)CN(C(=O)C3(F)CC3)C4)CC2)o1 (single isomer, unassigned) [Example 7Y, (R)-(1-fluorocyclopropyl)(6-(4-(2-((5-methyl-1,3,4-oxadiazol-2-yl)methoxy)phenyl)piperidin-1-yl)-2-azaspiro[3.4]octan-2-yl)methanone or (S)-(1-fluorocyclopropyl)(6-(4-(2-((5-methyl-1,3,4-oxadiazol-2-yl)methoxy)phenyl)piperidin-1-yl)-2-azaspiro[3.4]octan-2-yl)methanone]",0,0,> 25,
